How the values were obtained:
[1] = tested on: mouse embryonic fibroblasts (MEFs); assay: Spontaneous adipogenesis of MEFs in growth medium: lipid accumulation under phase contrast microscopy; assay type: cell-based; conditions: day 8 of culture in growth medium, HA 80 μg/mL, DS 20 μg/mL, HA8O+DS20 100 μg/mL
Experimental: MEFs obtained from embryos of 13 days gestational age were cultured in monolayer in growth medium consisting of […] (Invitrogen, Carlsbad, Calif., USA) basal medium supplemented with […] supplement (7.5%), foetal bovine serum (7.5%) and antibiotics, in 12-well culture plates of 1 mL capacity/well, following a previously described protocol (J. B. Hansen et al., Proc. Natl. Acad. Sci. USA 101, 4112-4117 (2004)). Two days after reaching confluence, which is considered day 0 of culture, the cells were exposed to: carrier (water); hyaluronic acid (HA) at a final concentration (f.c.) of 80 μg/mL; dermatan sulphate (DS) at an f.c. of 20 μg/mL; chondroitin sulphate (CS) at an f.c. of 20 μg/mL; or composition of the present invention HA8O+DS20 at an f.c. of 100 μg/mL, containing 80 μg of HA and 20 μg of DS per mL. […] The mRNA levels of the genes related to adipocyte differentiation PPARgamma, C/EBPalpha and fatty acid synthase (FAS) were determined by real-time PCR from the total RNA extracted from the cells with Trizol reagent and reverse-transcribed with reverse transcriptase, and using the mRNA of beta-actin as an internal control. […] The statistical significance of differences with respect to treatment with the carrier was analyzed by means of Student's t-test. […]

resistin = assay: Resistin gene expression in MEF-derived adipocytes; assay type: cell-based, mouse; conditions: 8 days of MEF adipocyte differentiation in adipogenic medium; compositions at f.c. 20, 100, 200 μg/mL; HA 80, DS 20 μg/mL
Experimental: MEFs obtained from embryos of 13 days gestational age were cultured in monolayer in growth medium consisting of […] (Invitrogen, Carlsbad, Calif., USA) basal medium supplemented with […] supplement (7.5%), foetal bovine serum (7.5%) and antibiotics, in 12-well culture plates of 1 mL capacity/well, following a previously described protocol (J. B. Hansen et al., Proc. Natl. Acad. Sci. USA 101, 4112-4117 (2004)). […] The mRNA levels of the genes related to adipocyte differentiation PPARgamma, C/EBPalpha and fatty acid synthase (FAS) were determined by real-time PCR from the total RNA extracted from the cells with Trizol reagent and reverse-transcribed with reverse transcriptase, and using the mRNA of beta-actin as an internal control. […] The statistical significance of differences with respect to treatment with the carrier was analyzed by means of Student's t-test. […] The mRNA levels of selected genes were determined by real-time PCR, as described in Example 1. […] Expression levels of the resistin gene were determined by real-time PCR, as described in Example 1.

Row | Substance | clusters of cells spontaneously differentiated into adipocytes filled with fat droplets [1] | expression of resistin (resistin)
1 | dermatan sulphate [DS20] | presence of a number of clusters of cells spontaneously differentiated into adipocytes filled with fat droplets | not reproduced
2 | hyaluronic acid [HA80] | presence of a number of clusters of cells spontaneously differentiated into adipocytes filled with fat droplets | not reproduced

From patent US20150182597A1, “COMPOSITIONS COMPRISING HYALURONIC ACID AND DERMATAN SULPHATE FOR THE TREATMENT OF BEING OVERWEIGHT AND OBESITY” (BIOIBERICA, S.A., priority 2012, published 2015)
